The record followed here is ChEMBL document CHEMBL1681745, “Synthesis and photophysical properties of new SNARF derivatives as dual emission pH sensors” (Bioorg Med Chem Lett, 2011).

Data set [1] has as its system V79. Nature of the data set: Cellular uptake in chinese hamster V79 cells at 10 uM after 1 hr by flow cytometry. In kind it is ADME, cell-based, Cricetulus griseus. To be noted: v79, 1 h. A general note: In flow cytometry, cells or beads pass a laser one at a time.
Data set [2] is described as follows: Dissociation constant, pKa of the compound by UV spectrum analysis. In kind it is physicochemical.

One may read the pKa as the negative logarithm of the acid dissociation constant. With `CN(C)c1ccc2c(c1)Oc1c(ccc3cc(O)ccc13)C21OC(=O)c2c(Cl)c(Cl)c(Cl)c(Cl)c21` (stereo unspecified), the Drug uptake entry in data set [1] is recorded as “Active”. In data set [2], the pKa came out at 7.9.
Turning to `CN(C)c1ccc2c(c1)Oc1c(ccc3cc(O)ccc13)C21OC(=O)c2c(F)c(F)c(F)c(F)c21` (stereo unspecified), in data set [1], the Drug uptake result is reported as “Active”. For the same compound, in data set [2], the pKa turned out to be 7.38.
On the same counts, the results for `C[N+](C)=c1ccc2c(-c3ccccc3C(=O)O)c3ccc4cc(O)ccc4c3oc-2c1` are “Active” and 7.62.
